The test system of the data set is CCRIS mutagenicity, Ames/micronucleus/aberration tests. As to the kind of experiment: CCRIS mutagenicity studies.
The mark [1] stands for this setting: Test System: AMES SALMONELLA TYPHIMURIUM, Strain/Indicator: TA98, Metabolic Activation: NONE, Method: STANDARD PLATE.
The mark [2] stands for this setting: Test System: AMES SALMONELLA TYPHIMURIUM, Strain/Indicator: TA100, Metabolic Activation: NONE, Method: STANDARD PLATE.
Where [3] appears, read: Test System: AMES SALMONELLA TYPHIMURIUM, Strain/Indicator: TA1535, Metabolic Activation: NONE, Method: STANDARD PLATE.
The mark [4] stands for this setting: Test System: AMES SALMONELLA TYPHIMURIUM, Strain/Indicator: TA1537, Metabolic Activation: NONE, Method: STANDARD PLATE.
The mark [5] stands for this setting: Test System: AMES SALMONELLA TYPHIMURIUM, Strain/Indicator: TA98, Metabolic Activation: NONE, Method: PREINCUBATION
[6] abbreviates: Test System: AMES SALMONELLA TYPHIMURIUM, Strain/Indicator: TA100, Metabolic Activation: NONE, Method: PREINCUBATION

The source made the active and inactive calls. How the calls were made is not given here.

For `CSCCC(=O)N1[C@@H](c2ccccc2O)SC[C@H]1C(=O)O`, the mutagenic call runs as follows: under setting [1], “inactive; negative”; under setting [2], “inactive; negative”; under setting [3], “inactive; negative”; under setting [4], “inactive; negative”; (Test System: AMES SALMONELLA TYPHIMURIUM, Strain/Indicator: TA1538, Metabolic Activation: NONE, Method: STANDARD PLATE) “inactive; negative”; (Test System: E. COLI, Strain/Indicator: WP2, Metabolic Activation: NONE, Method: STANDARD PLATE) “inactive; negative”. Also, where the note is “Test System: E. COLI, Strain/Indicator: WP2 UVRA, Metabolic Activation: NONE, Method: STANDARD PLATE”, the mutagenic call was “inactive; negative”.

On to `CC(=O)O/C=C/Cc1ccc2c(c1)OCO2`, for which, under “Test System: UDS HUMAN FIBROBLASTS, Strain/Indicator: THY INCORP (NON-S-PHASE), Metabolic Activation: NONE, Method: AUTORADIOGRAPHY”, the mutagenic call is “active; positive”.

In the case of `CCCCNC(=O)c1cc(N)ccc1OC1CCCCC1`, the mutagenic call was “inactive; negative. data given only in abstract” (Test System: Ames Salmonella typhimurium, Strain/Indicator: TA98, Metabolic Activation: None, Method: Preincubation); “active; positive. a hydroxylated form of pa7 appears to be the active component” (Test System: Ames Salmonella typhimurium, Strain/Indicator: TA98, Metabolic Activation: Rat, Liver, S-9, Phenobarbital and beta-naphthoflavone, Method: Preincubation); “inactive; negative. data given only in abstract” (Test System: Ames Salmonella typhimurium, Strain/Indicator: TA100, Metabolic Activation: None, Method: Preincubation); “active; positive. a hydroxylated form of pa7 appears to be the active component” (Test System: Ames Salmonella typhimurium, Strain/Indicator: TA100, Metabolic Activation: Rat, Liver, S-9, Phenobarbital and beta-naphthoflavone, Method: Preincubation); “inactive; negative. data given only in abstract” (Test System: Ames Salmonella typhimurium, Strain/Indicator: TA102, Metabolic Activation: None, Method: Preincubation); “inactive; negative. data given only in abstract” (Test System: Ames Salmonella typhimurium, Strain/Indicator: TA1535, Metabolic Activation: None, Method: Preincubation). Moreover, the mutagenic call (Test System: Ames Salmonella typhimurium, Strain/Indicator: TA1537, Metabolic Activation: None, Method: Preincubation) was “inactive; negative. data given only in abstract”.

Take `O=S(=O)(O)c1ccc2cc(O)ccc2c1`: the mutagenic call under setting [5] was “inactive; negative”; the mutagenic call (Test System: AMES SALMONELLA TYPHIMURIUM, Strain/Indicator: TA98, Metabolic Activation: RAT, LIVER, S-9, PHENOBARBITAL, Method: PREINCUBATION) is “inactive; negative”; the mutagenic call under setting [6] was “inactive; negative”; the mutagenic call (Test System: AMES SALMONELLA TYPHIMURIUM, Strain/Indicator: TA100, Metabolic Activation: RAT, LIVER, S-9, PHENOBARBITAL, Method: PREINCUBATION) was “inactive; negative”.

For `O=CC(O)C(O)C(O)C(O)CO` (centres undefined), the mutagenic call is “inactive; negative” (Test System: AMES SALMONELLA TYPHIMURIUM, Strain/Indicator: TA97, Metabolic Activation: NONE, Method: PREINCUBATION); “inactive; negative” (Test System: AMES SALMONELLA TYPHIMURIUM, Strain/Indicator: TA97, Metabolic Activation: S-9, Method: PREINCUBATION); “inactive; negative” (Test System: AMES SALMONELLA TYPHIMURIUM, Strain/Indicator: TA102, Metabolic Activation: NONE, Method: PREINCUBATION); “inactive; negative” (Test System: AMES SALMONELLA TYPHIMURIUM, Strain/Indicator: TA102, Metabolic Activation: S-9, Method: PREINCUBATION).

With `CCCCCNc1snc2ccccc12`, the mutagenic call runs as follows: under setting [1], “inactive; negative”; (Test System: AMES SALMONELLA TYPHIMURIUM, Strain/Indicator: TA98, Metabolic Activation: S-9, Method: STANDARD PLATE) “inactive; negative”; under setting [2], “inactive; negative”; (Test System: AMES SALMONELLA TYPHIMURIUM, Strain/Indicator: TA100, Metabolic Activation: S-9, Method: STANDARD PLATE) “inactive; negative”; under setting [3], “inactive; negative”; (Test System: AMES SALMONELLA TYPHIMURIUM, Strain/Indicator: TA1535, Metabolic Activation: S-9, Method: STANDARD PLATE) “inactive; negative”. Moreover, the mutagenic call was “inactive; negative” under setting [4] and “inactive; negative” (Test System: AMES SALMONELLA TYPHIMURIUM, Strain/Indicator: TA1537, Metabolic Activation: S-9, Method: STANDARD PLATE).

Take `CCN=[N+]([O-])CC`: the mutagenic call runs as follows: (Test System: AMES SALMONELLA TYPHIMURIUM, Strain/Indicator: TA1535, Metabolic Activation: HAMSTER, LIVER, S-9, AROCLOR 1254, Method: PREINCUBATION) “inactive; negative”; (Test System: AMES SALMONELLA TYPHIMURIUM, Strain/Indicator: TA1535, Metabolic Activation: NONE, Method: PREINCUBATION) “inactive; negative”; (Test System: AMES SALMONELLA TYPHIMURIUM, Strain/Indicator: TA1535, Metabolic Activation: RAT, LIVER, S-9, AROCLOR 1254, Method: PREINCUBATION) “inactive; negative”.

Consider `O=[N+]([O-])c1ccc(CO)c([N+](=O)[O-])c1`, for which the mutagenic call is “active; positive” under setting [5]; “active; positive” (Test System: AMES SALMONELLA TYPHIMURIUM, Strain/Indicator: TA98, Metabolic Activation: RAT, LIVER, S-9, AROCLOR, Method: PREINCUBATION); “active; positive” (Test System: AMES SALMONELLA TYPHIMURIUM, Strain/Indicator: TA98, Metabolic Activation: RAT, LIVER, S-9, PHENOBARBITAL AND 5,6-BENZOFLAVONE, Method: PREINCUBATION); “active; positive” under setting [6]; “active; positive” (Test System: AMES SALMONELLA TYPHIMURIUM, Strain/Indicator: TA100, Metabolic Activation: RAT, LIVER, S-9, PHENOBARBITAL AND 5,6-BENZOFLAVONE, Method: PREINCUBATION).

Values taken from PubChem BioAssay AID1259407 (Chemical Carcinogenesis Research Information System (CCRIS), 2018).
